From patent US11180505B2, “Crystal form of PARP-1 inhibitor and preparation method therefor” (Jiangsu Hengrui Medicine Co., Ltd., priority 2017, dated 2021)
Where two headings read alike, the source gives them in different places.

What was measured:
[1] = target: PARP enzyme (Homo sapiens, UniProt P09874); conditions: in vitro; cited from earlier work
[2] = rat, in vivo; cited from earlier work
[3] = dog, in vivo; cited from earlier work
[4] = system: transplanted tumor; conditions: nude-mouse transplanted tumor model; cited from earlier work
[5] = accelerated stability test of the crystal form (XRD comparison); type: physicochemical; conditions: 40° C., relative humidity of 75%, 6 months, XRD compared with 0 month
Protocol: The sample of Example 1 was subjected to an accelerated stability test (40° C., relative humidity of 75%) for 6 months and then sent to XRD for testing, and compared with the original data to confirm whether the crystal form changed.
Among them, the XRPD pattern of crystal form A of the compound of formula I after 6 months of the accelerated stability test (40° C., relative humidity of 75%) is shown in FIG. 3. The comparative XRPD pattern of crystal form A of the compound of formula I after accelerated stability test is shown in FIG. 4.

Sequence of PARP enzyme (P09874 whole entry): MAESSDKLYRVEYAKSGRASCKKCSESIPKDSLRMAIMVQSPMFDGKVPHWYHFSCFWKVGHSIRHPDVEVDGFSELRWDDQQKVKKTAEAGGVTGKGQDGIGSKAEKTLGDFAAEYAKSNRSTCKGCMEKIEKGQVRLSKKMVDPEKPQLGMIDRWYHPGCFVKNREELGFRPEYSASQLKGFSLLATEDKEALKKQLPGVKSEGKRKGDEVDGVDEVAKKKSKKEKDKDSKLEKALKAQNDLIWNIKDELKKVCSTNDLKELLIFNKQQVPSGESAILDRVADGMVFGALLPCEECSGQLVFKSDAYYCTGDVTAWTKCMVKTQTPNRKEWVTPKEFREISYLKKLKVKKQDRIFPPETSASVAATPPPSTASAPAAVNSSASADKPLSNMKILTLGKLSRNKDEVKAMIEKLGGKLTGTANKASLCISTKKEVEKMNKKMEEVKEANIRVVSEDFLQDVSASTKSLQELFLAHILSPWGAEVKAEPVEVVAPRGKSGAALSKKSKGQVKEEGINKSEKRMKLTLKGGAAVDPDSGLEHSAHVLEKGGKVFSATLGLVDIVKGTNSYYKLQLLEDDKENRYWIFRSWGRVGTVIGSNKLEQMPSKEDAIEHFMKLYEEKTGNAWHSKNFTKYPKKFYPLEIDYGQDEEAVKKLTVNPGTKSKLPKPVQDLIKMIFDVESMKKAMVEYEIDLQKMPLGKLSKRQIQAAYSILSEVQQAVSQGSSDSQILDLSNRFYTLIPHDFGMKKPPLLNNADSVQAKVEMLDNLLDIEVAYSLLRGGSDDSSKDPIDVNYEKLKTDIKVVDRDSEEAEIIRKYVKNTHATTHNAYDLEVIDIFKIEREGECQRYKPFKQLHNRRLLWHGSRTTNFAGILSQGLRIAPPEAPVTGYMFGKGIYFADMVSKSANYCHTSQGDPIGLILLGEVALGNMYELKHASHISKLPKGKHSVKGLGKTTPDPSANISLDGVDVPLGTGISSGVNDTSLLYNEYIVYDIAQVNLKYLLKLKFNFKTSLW

## O=C(c1cc(Cc2n[nH]c(=O)c3ccccc23)ccc1F)N1CCn2nc(C(F)(F)F)nc2C1 [formula I]
[1]
  inhibition of the activity of PARP enzyme: inhibit the activity of PARP enzyme significantly
[2]
  safety (toxicological data): has a corresponding safety
[3]
  safety (toxicological data): has a corresponding safety
[4]
  inhibition of tumor growth: inhibit tumor growth significantly

## O=C(c1cc(Cc2n[nH]c(=O)c3ccccc23)ccc1F)N1CCn2nc(C(F)(F)F)nc2C1 [Example 1]
[5]
  crystal form change after accelerated stability test: did not change
